In the assay the target is Potassium voltage-gated channel subfamily KQT member 4 (Homo sapiens) (UniProt P56696). Briefly: KCNQ4 thallium flux concentration-response – KCNQ4-expressing cells, selectivity assay for KCNQ2 activator project, dose response (AID 504416). Conditions: FluxOR thallium flux fluorescence.

Calls of active or inactive are those of the source.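 How the source made its calls: active means raises or lowers thallium flux through KCNQ4 potassium channels at some tested dose, with a fitted dose response curve; inactive means no effect at any dose or no curve.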

Sequence of Potassium voltage-gated channel subfamily KQT member 4 (Homo sapiens) (P56696 whole entry, looked up): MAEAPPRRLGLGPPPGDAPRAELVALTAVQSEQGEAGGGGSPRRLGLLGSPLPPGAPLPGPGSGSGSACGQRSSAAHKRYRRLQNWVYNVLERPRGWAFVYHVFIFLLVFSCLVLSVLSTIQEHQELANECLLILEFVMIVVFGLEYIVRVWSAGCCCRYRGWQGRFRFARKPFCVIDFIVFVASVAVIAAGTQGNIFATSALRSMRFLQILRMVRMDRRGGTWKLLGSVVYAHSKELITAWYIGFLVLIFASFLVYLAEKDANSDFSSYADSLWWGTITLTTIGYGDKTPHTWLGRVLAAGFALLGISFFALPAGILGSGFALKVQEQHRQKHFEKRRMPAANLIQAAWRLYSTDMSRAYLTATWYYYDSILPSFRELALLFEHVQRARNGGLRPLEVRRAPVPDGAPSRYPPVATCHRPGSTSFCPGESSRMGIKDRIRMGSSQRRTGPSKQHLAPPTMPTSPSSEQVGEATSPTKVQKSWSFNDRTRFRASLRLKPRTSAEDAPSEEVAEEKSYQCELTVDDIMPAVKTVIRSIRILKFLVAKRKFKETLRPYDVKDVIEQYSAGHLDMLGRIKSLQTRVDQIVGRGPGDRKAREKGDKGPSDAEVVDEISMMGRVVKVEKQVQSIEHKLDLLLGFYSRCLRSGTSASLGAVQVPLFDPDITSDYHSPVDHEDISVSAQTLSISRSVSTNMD

In the case of `Cc1cc(C)c(NC(=O)C2CC3CCC2C3)c(C)c1` (configuration not stated), the EC50 is 2400 nM. Consider `Cc1cccc(C)c1NC(=O)C1CC2CCC1C2` (configuration not stated), for which the potentiation result (at 30 µM (top of the series)) was “inactive”.

The EC50 is the concentration at which the effect is half-maximal.

For the origin of these results see PubChem BioAssay AID504416 (Johns Hopkins Ion Channel Center, 2011).
